Consider six compounds from ChEMBL document CHEMBL3879894, “Novel pharmaceutical composition for prevention and/or treatment of attention deficit/hyperactivity disorder” (2012).

One experiment relates to Rattus norvegicus. In words: Prevention of attention deficit/hyperactivity in po dosed spontaneously hypertensive stroke-prone rat assessed as prolongation of cumulative entry latency administered for 30 mins by passive avoidance response test. In kind it is functional. Conditions: 0.5 h, read-out: MED.
As for `Cl.Nc1nc(Nc2ccc(F)cc2)nc(N(Cc2ccnc(F)c2)c2ccccc2)n1`, the minimal effective dose worked out at 3 mg/kg.
Same read-out and setting: under `Fc1ccc(Nc2nc(NCc3ncccn3)nc(Nc3ccc(F)cc3)n2)cc1` stands 0.03 mg/kg; under `COc1ccc(Nc2nc(NCc3ncccn3)nc(Nc3ccc(F)cc3)n2)cc1`, 0.3 mg/kg; under `Fc1ccc(Nc2nc(NCc3ccncn3)nc(Nc3ccc(F)cc3)n2)cc1`, 0.03 mg/kg.
On the same count and under the same terms, with `Fc1ccc(Nc2nc(NCc3ncccn3)nc(Nc3ccccc3)n2)cc1` the figure was 0.1 mg/kg.

The next experiment deals with Rattus norvegicus. In words: Prevention of attention deficit/hyperactivity in sc dosed spontaneously hypertensive stroke-prone rat assessed as prolongation of cumulative entry latency administered for 30 mins by passive avoidance response test. Conditions: 0.5 h, read-out: MED. In kind it is functional.
As to `COC(=O)C(c1ccccc1)C1CCCCN1` (stereo unspecified) [METHYLPHENIDATE], the minimal effective dose was determined as 0.1 mg/kg.
